The test system of data set [1] is Escherichia coli K12 MG1655. Type of data set: cell-based. As for the experimental part:
(§1) To further validate the approach, a number of antimicrobial peptides identified during the in silico validation were synthesized. Their antimicrobial activity against Escherichia coli and Staphylococcus aureus were measured in a growth inhibitory assay. Details on the synthesis and assay are given in the supplementary material (see S1 Text). The peptides were obtained using h CAMP, the same predictor used during the previous validation. […]
(§2) Escherichia coli K12 MG1655 and Staphylococcus aureus 68 (HER1049) were obtained from the F´elix d’H´erelle Reference Center for Bacterial Viruses of Universit´e Laval (http://www.phage.ulaval.ca). Both strains were grown in Trypticase soy broth with agitation at 37◦C. The minimal inhibitory concentration assay was performed as described in [2] and broth microdilution protocol performed in 96-well plates.
(§3) The bacterial strains were grown overnight at 37◦C with aeration and diluted to a ﬁnal concentration of 5× 10^5 cfu/ml in the assay. The peptides were diluted in sterile water and were tested at the following concentrations: 0, 1, 2, 4, 8, 16 and 32µg/ml. The optical density (600nm) was followed every 30 minutes for 24 hours with a Synergy 2 plate reader (BioTek Instruments, Inc.). […]
(§4) 2.Wiegand I, Hilpert K, Hancock RE (2008) Agar and broth dilution methods to determine the minimal inhibitory concentration (mic) of antimicrobial substances. Nature protocols 3: 163–175.

Data set [2] deals with Staphylococcus aureus 68 (HER1049). Type of data set: cell-based. How it is done: as §1, §2, §3, §4
The test system of data set [3] is 24 bacteria such as Escherichia coli, Bacteroïdes fragilis, and Staphylococcus aureus. Particulars: average potency over 24 bacteria; CAMPs training set value; cited from earlier work. From the text:
We observe a smooth power law with only a few peptides having outstanding biological activity, as expected.

The conditions of data set [4]: stated in words as the cause of the weak activity.
From the text: We used the proposed approach with the predictor h CAMP to generate a list of K = 1,000 peptide candidates with the highest predicted activity. From this list, we greedily selected three peptides such that they all differed by at least 4 amino acids from each others. This was done to maximize the chemical diversity among them. We then tested these peptides (Peptides #2, #3, #4) in a growth inhibitory assay. […] In a second series, we ensured that a filter for water solubility was employed.
A further data set concerns bradykinin potentiation. Particulars: BPPs training set value; cited from earlier work. From the text:
On the BPPs dataset, the proposed approach predicted that the pentapeptide IEWAK should have an activity of 2.195, slightly less than the best peptide of the training set (VEWAK, 2.73, predicted as 2.192). However, the predicted activity of IEWAK is much better than the average peptide activity of the dataset, which is 0.71. One may ask why IEWAK has a lower predicted biological activity than VEWAK, which was part of the training data. It is common for machine learning algorithms to sacrifice accuracy on the training data to prevent overfitting. Despite this small discrepancy, the model is ver ...

[5] abbreviates: E. coli K12 MG1655, broth microdilution in 96-well plates, 5×10^5 cfu/ml, peptides in sterile water tested at 0, 1, 2, 4, 8, 16 and 32 µg/ml, OD 600 nm every 30 minutes for 24 hours, 37 °C.
Setting [6] is: S. aureus 68 (HER1049), broth microdilution in 96-well plates, 5×10^5 cfu/ml, peptides in sterile water tested at 0, 1, 2, 4, 8, 16 and 32 µg/ml, OD 600 nm every 30 minutes for 24 hours, 37 °C.

Where two headings read alike, the source gives them in different places. Peptide text beside a SMILES is read from it.

On to `CC[C@H](C)[C@H](NC(=O)CNC(=O)[C@H](CC(C)C)NC(=O)[C@H](Cc1ccccc1)NC(=O)[C@H](CC(C)C)NC(=O)[C@H](CCCCN)NC(=O)[C@H](Cc1c[nH]c2ccccc12)NC(=O)[C@@H](N)CCCCN)C(=O)N[C@@H](CC(C)C)C(=O)N[C@@H](C)C(=O)N[C@H](C(=O)N[C@@H](CC(C)C)C(=O)N[C@@H](CCCCN)C(=O)N[C@H](C(=O)N[C@@H](CC(C)C)C(N)=O)C(C)C)C(C)C` [Peptide 7, reference compound] (H-KWKLFLGILAVLKVL-NH2; N-terminus assumed), for which the “MIC (μg/ml) >E. coli” value in data set [1] (setting [5]) was greater than 32 µg/mL. Besides, in data set [2] (setting [6]), the “MIC (μg/ml) S. aureus” value is greater than 32 µg/mL.
Consider `CC[C@H](C)[C@H](NC(=O)[C@H](CC(C)C)NC(=O)[C@H](CCCNC(=N)N)NC(=O)[C@H](Cc1c[nH]c2ccccc12)NC(=O)CN)C(=O)N[C@@H](CCCCN)C(=O)N[C@@H](CCCCN)C(=O)N[C@H](C(=O)N[C@@H](CC(C)C)C(=O)N[C@@H](CCCNC(=N)N)C(=O)N[C@H](C(=O)N[C@@H](Cc1ccccc1)C(=O)N[C@@H](CCCCN)C(=O)NCC(=O)N[C@@H](CC(C)C)C(N)=O)C(C)C)[C@@H](C)CC` [Peptide 6, reference compound] (H-GWRLIKKILRVFKGL-NH2; N-terminus assumed), for which the “MIC (μg/ml) >E. coli” value in data set [1] (setting [5]) is 4 µg/mL. Further, the “MIC (μg/ml) S. aureus” value in data set [2] (setting [6]) amounted to 4 µg/mL. In data set [3], the “antibacterial activity (logarithm of bactericidal potency)” value is 0.824.
On to `CC[C@H](C)[C@H](NC(=O)[C@H](CCCNC(=N)N)NC(=O)[C@H](CCCCN)NC(=O)[C@H](Cc1c[nH]c2ccccc12)NC(=O)[C@H](CCCNC(=N)N)NC(=O)[C@H](CCCCN)NC(=O)[C@H](Cc1c[nH]c2ccccc12)NC(=O)[C@@H](N)Cc1c[nH]c2ccccc12)C(=O)N[C@@H](CCCNC(=N)N)C(=O)N[C@@H](CCCNC(=N)N)C(=O)N[C@H](C(=O)N[C@@H](Cc1ccccc1)C(=O)N[C@@H](CCSC)C(=O)N[C@@H](CCSC)C(=O)N[C@H](C(N)=O)C(C)C)[C@@H](C)CC` [Peptide 3] (H-WWKRWKRIRRIFMMV-NH2; N-terminus assumed), for which, in data set [1] (K12, 24 h), the “MIC (μg/ml) >E. coli” value turned out to be 4 µg/mL. Further, in data set [2] (68 (HER1049, 24 h)), the “MIC (μg/ml) S. aureus” value was found to be 8 µg/mL.
`CC(C)C[C@H](NC(=O)[C@H](CCCNC(=N)N)NC(=O)[C@H](CCCCN)NC(=O)[C@H](Cc1c[nH]c2ccccc12)NC(=O)[C@H](Cc1c[nH]c2ccccc12)NC(=O)[C@H](CCCCN)NC(=O)[C@H](Cc1c[nH]c2ccccc12)NC(=O)[C@@H](N)Cc1c[nH]c2ccccc12)C(=O)N[C@@H](CCCNC(=N)N)C(=O)N[C@@H](CCCNC(=N)N)C(=O)N[C@@H](CC(C)C)C(=O)N[C@@H](Cc1ccccc1)C(=O)N[C@@H](CC(C)C)C(=O)N[C@@H](CC(C)C)C(=O)N[C@H](C(N)=O)C(C)C` [Peptide 4] (H-WWKWWKRLRRLFLLV-NH2; N-terminus assumed): the “MIC (μg/ml) >E. coli” value in data set [1] (K12, 24 h) amounted to 16 µg/mL. Also, the “MIC (μg/ml) S. aureus” value in data set [2] (68 (HER1049, 24 h)) stood at 16 µg/mL. For the same compound, in data set [4], the water solubility entry is “poor”.
For the compound VEWAK, the “bioactivity (logarithm of the relative activity index compared to the peptide VESSK)” value with bradykinin potentiation is given as 2.73.
Take `CC[C@H](C)[C@H](NC(=O)[C@H](CCCNC(=N)N)NC(=O)[C@H](CCCNC(=N)N)NC(=O)[C@H](CC(C)C)NC(=O)[C@H](CCCCN)NC(=O)[C@H](CCCCN)NC(=O)[C@H](Cc1c[nH]c2ccccc12)NC(=O)[C@H](CCCNC(=N)N)NC(=O)[C@H](CCCCN)NC(=O)[C@H](Cc1c[nH]c2ccccc12)NC(=O)[C@@H](N)Cc1c[nH]c2ccccc12)C(=O)N[C@@H](Cc1ccccc1)C(=O)N[C@@H](CC(C)C)C(=O)N[C@@H](CCSC)C(=O)N[C@@H](CC(C)C)C(N)=O` [Peptide 2] (H-WWKRWKKLRRIFLML-NH2; N-terminus assumed): the “MIC (μg/ml) >E. coli” value in data set [1] (K12, 24 h) amounted to 4 µg/mL. Moreover, the “MIC (μg/ml) S. aureus” value in data set [2] (68 (HER1049, 24 h)) was found to be 4 µg/mL.
For `CC[C@H](C)[C@H](NC(=O)CNC(=O)[C@H](CCCCN)NC(=O)[C@H](Cc1ccccc1)NC(=O)[C@H](CC(C)C)NC(=O)[C@H](CCCCN)NC(=O)[C@H](Cc1c[nH]c2ccccc12)NC(=O)[C@@H](N)CCCCN)C(=O)N[C@@H](CCCNC(=N)N)C(=O)N[C@@H](C)C(=O)N[C@H](C(=O)N[C@@H](CC(C)C)C(=O)N[C@@H](CCCCN)C(=O)N[C@H](C(=O)N[C@@H](CC(C)C)C(N)=O)C(C)C)C(C)C` [Peptide 5, reference compound] (H-KWKLFKGIRAVLKVL-NH2; N-terminus assumed), the “MIC (μg/ml) >E. coli” value in data set [1] (setting [5]) was found to be 4 µg/mL. Moreover, in data set [2] (setting [6]), the “MIC (μg/ml) S. aureus” value turned out to be 8 µg/mL.
As for `CC[C@H](C)[C@H](NC(=O)[C@H](CCCNC(=N)N)NC(=O)[C@H](CCCNC(=N)N)NC(=O)[C@H](CC(C)C)NC(=O)[C@H](CCCCN)NC(=O)[C@H](CCCCN)NC(=O)[C@H](Cc1c[nH]c2ccccc12)NC(=O)[C@H](CCCCN)NC(=O)[C@H](CCCCN)NC(=O)[C@H](Cc1c[nH]c2ccccc12)NC(=O)[C@@H](N)Cc1ccc(O)cc1)C(=O)N[C@@H](Cc1ccccc1)C(=O)N[C@@H](CCSC)C(=O)N[C@@H](CC(C)C)C(=O)N[C@H](C(N)=O)C(C)C` [Peptide 1] (H-YWKKWKKLRRIFMLV-NH2; N-terminus assumed), the “MIC (μg/ml) >E. coli” value in data set [1] (K12, 24 h) was determined as 2 µg/mL. Besides, the “MIC (μg/ml) S. aureus” value in data set [2] (68 (HER1049, 24 h)) came to 8 µg/mL.

Values taken from PMC4388847, “Machine Learning Assisted Design of Highly Active Peptides for Drug Discovery” (PLoS Computational Biology, 2015).
